Values joined by “and” are separate entries in the source; they are usually repeats but may differ in a detail not shown here. Equal entries are not always repeated. Inconclusive results and toxic doses are left out.
Tested on: BDF1 mice, P388 leukemia ip, median survival T/C
Assay: NCI In Vivo Anticancer Drug Screen. Data for tumor model P388 Leukemia (intraperitoneal) in B6D2F1 (BDF1) mice
Details: endpoint: median survival time, higher = longer survival
In short: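 T/C = treated-group survival ÷ vehicle-control survival; tumour transplanted into mice before dosing.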

COC(=O)[C@@]12OC[C@]34[C@H]([C@@H](O)[C@@H]1O)[C@@]1(C)CC(=O)C(O)=C(C)[C@@H]1C[C@H]3OC(=O)[C@H](OC(=O)/C=C(\C)C(C)C)[C@@H]24
T/C (dose: 0.03 mg/kg/injection, schedule: Q01DX009 (ip), vehicle: saline + alcohol): 151 % of control
T/C (dose: 0.03 mg/kg/injection, schedule: Q01DX009 (ip), vehicle: saline): 155 % of control
T/C (dose: 0.05 mg/kg/injection, schedule: Q01DX005 (iv), vehicle: saline + alcohol): 100 % of control
T/C (dose: 0.05 mg/kg/injection, schedule: Q01DX009 (ip), vehicle: saline + alcohol): 150 % of control
T/C (dose: 0.06 mg/kg/injection, schedule: Q01DX009 (ip), vehicle: other): 153 % of control
T/C (dose: 0.06 mg/kg/injection, schedule: Q01DX009 (ip), vehicle: saline): 170 % of control
T/C (dose: 0.06 mg/kg/injection, schedule: Q01DX009 (sc), vehicle: saline + alcohol): 100 % of control
T/C (dose: 0.06 mg/kg/injection, schedule: Q03HX024 (ip), vehicle: other): 155 % of control
T/C (dose: 0.06 mg/kg/injection, schedule: Q03HX024 (ip), vehicle: saline + alcohol): 152 % of control and 153 % of control
T/C (dose: 0.1 mg/kg/injection, schedule: Q01DX005 (iv), vehicle: saline + alcohol): 100 % of control
T/C (dose: 0.1 mg/kg/injection, schedule: Q01DX009 (ip), vehicle: saline + alcohol): 158 % of control
T/C (dose: 0.12 mg/kg/injection, schedule: Q01DX009 (ip), vehicle: other): 177 % of control
T/C (dose: 0.12 mg/kg/injection, schedule: Q01DX009 (ip), vehicle: saline + alcohol): 158 % of control
T/C (dose: 0.12 mg/kg/injection, schedule: Q01DX009 (ip), vehicle: saline with Tween-80): 151 % of control
T/C (dose: 0.12 mg/kg/injection, schedule: Q01DX009 (ip), vehicle: saline): 180 % of control
T/C (dose: 0.12 mg/kg/injection, schedule: Q03HX024 (ip), vehicle: other): 166 % of control
T/C (dose: 0.12 mg/kg/injection, schedule: Q03HX024 (ip), vehicle: saline + alcohol): 157 % of control
T/C (dose: 0.12 mg/kg/injection, schedule: Q03HX024 (ip), vehicle: saline with Tween-80): 150 % of control
T/C (dose: 0.13 mg/kg/injection, schedule: Q01DX009 (ip), vehicle: saline + alcohol): 158 % of control and 164 % of control and 173 % of control
T/C (dose: 0.13 mg/kg/injection, schedule: Q01DX009 (ip), vehicle: saline with Tween-80): 161 % of control
T/C (dose: 0.13 mg/kg/injection, schedule: Q01DX009 (sc), vehicle: saline + alcohol): 108 % of control
T/C (dose: 0.13 mg/kg/injection, schedule: Q03HX016 (ip), vehicle: saline + alcohol): 152 % of control
T/C (dose: 0.13 mg/kg/injection, schedule: Q03HX024 (ip), vehicle: saline + alcohol): 159 % of control
T/C (dose: 0.2 mg/kg/injection, schedule: Q01DX005 (iv), vehicle: saline + alcohol): 100 % of control
T/C (dose: 0.2 mg/kg/injection, schedule: Q01DX009 (ip), vehicle: saline + alcohol): 173 % of control
T/C (dose: 0.25 mg/kg/injection, schedule: Q01DX009 (ip), vehicle: other): 171 % of control
T/C (dose: 0.25 mg/kg/injection, schedule: Q01DX009 (ip), vehicle: saline with Tween-80): 183 % of control
T/C (dose: 0.25 mg/kg/injection, schedule: Q01DX009 (sc), vehicle: saline + alcohol): 108 % of control
T/C (dose: 0.25 mg/kg/injection, schedule: Q03HX016 (ip), vehicle: saline + alcohol): 165 % of control
T/C (dose: 0.25 mg/kg/injection, schedule: Q03HX024 (ip), vehicle: saline with Tween-80): 169 % of control
T/C (dose: 0.25 mg/kg/injection, schedule: Q04DX003 (ip), vehicle: saline + alcohol): 122 % of control
T/C (dose: 0.25 mg/kg/injection, schedule: Q04DX003 (ip), vehicle: saline with Tween-80): 120 % of control
T/C (dose: 0.4 mg/kg/injection, schedule: Q01DX005 (iv), vehicle: saline + alcohol): 107 % of control
T/C (dose: 0.4 mg/kg/injection, schedule: Q01DX009 (ip), vehicle: saline + alcohol): 185 % of control
T/C (dose: 0.44 mg/kg/injection, schedule: Q01DX009 (ip), vehicle: saline with Tween-80): 186 % of control
T/C (dose: 0.5 mg/kg/injection, schedule: Q01DX009 (ip), vehicle: other): 177 % of control
T/C (dose: 0.5 mg/kg/injection, schedule: Q01DX009 (ip), vehicle: saline with Tween-80): 175 % of control
T/C (dose: 0.5 mg/kg/injection, schedule: Q01DX009 (ip), vehicle: saline): 150 % of control
T/C (dose: 0.5 mg/kg/injection, schedule: Q01DX009 (oral), vehicle: saline + alcohol): 101 % of control and 110 % of control
T/C (dose: 0.5 mg/kg/injection, schedule: Q01DX009 (sc), vehicle: saline + alcohol): 116 % of control
T/C (dose: 0.5 mg/kg/injection, schedule: Q04DX003 (ip), vehicle: saline + alcohol): 120 % of control
T/C (dose: 0.5 mg/kg/injection, schedule: Q04DX003 (ip), vehicle: saline with Tween-80): 117 % of control
T/C (dose: 0.5 mg/kg/injection, schedule: Q08DX002 (ip), vehicle: saline + alcohol): 109 % of control
T/C (dose: 0.5 mg/kg/injection, schedule: Q08DX002 (ip), vehicle: saline with Tween-80): 116 % of control
T/C (dose: 0.65 mg/kg/injection, schedule: Q04DX003 (ip), vehicle: saline + alcohol): 123 % of control
T/C (dose: 0.67 mg/kg/injection, schedule: Q01DX009 (ip), vehicle: saline with Tween-80): 169 % of control
T/C (dose: 0.8 mg/kg/injection, schedule: Q01DX005 (ip), vehicle: saline + alcohol): 164 % of control
T/C (dose: 0.8 mg/kg/injection, schedule: Q01DX005 (iv), vehicle: saline + alcohol): 106 % of control and 119 % of control
T/C (dose: 1.0 mg/kg/injection, schedule: Q01DX001 (ip), vehicle: saline + alcohol): 107 % of control
T/C (dose: 1.0 mg/kg/injection, schedule: Q01DX001 (ip), vehicle: saline with Tween-80): 112 % of control
T/C (dose: 1.0 mg/kg/injection, schedule: Q01DX001 (oral), vehicle: saline + alcohol): 100 % of control and 101 % of control
T/C (dose: 1.0 mg/kg/injection, schedule: Q01DX001 (sc), vehicle: saline + alcohol): 114 % of control
T/C (dose: 1.0 mg/kg/injection, schedule: Q01DX009 (ip), vehicle: saline): 166 % of control
T/C (dose: 1.0 mg/kg/injection, schedule: Q01DX009 (oral), vehicle: saline + alcohol): 105 % of control and 107 % of control
T/C (dose: 1.0 mg/kg/injection, schedule: Q04DX003 (ip), vehicle: saline + alcohol): 123 % of control
T/C (dose: 1.0 mg/kg/injection, schedule: Q04DX003 (ip), vehicle: saline with Tween-80): 123 % of control
T/C (dose: 1.0 mg/kg/injection, schedule: Q08DX002 (ip), vehicle: saline + alcohol): 115 % of control
T/C (dose: 1.0 mg/kg/injection, schedule: Q08DX002 (ip), vehicle: saline with Tween-80): 99 % of control
T/C (dose: 1.08 mg/kg/injection, schedule: Q04DX003 (ip), vehicle: saline + alcohol): 123 % of control
T/C (dose: 1.5 mg/kg/injection, schedule: Q01DX009 (ip), vehicle: saline with Tween-80): 186 % of control
T/C (dose: 1.6 mg/kg/injection, schedule: Q01DX005 (ip), vehicle: saline + alcohol): 182 % of control
T/C (dose: 1.8 mg/kg/injection, schedule: Q04DX003 (ip), vehicle: saline + alcohol): 110 % of control and 123 % of control
T/C (dose: 2.0 mg/kg/injection, schedule: Q01DX001 (ip), vehicle: saline + alcohol): 106 % of control
T/C (dose: 2.0 mg/kg/injection, schedule: Q01DX001 (ip), vehicle: saline with Tween-80): 112 % of control
T/C (dose: 2.0 mg/kg/injection, schedule: Q01DX001 (oral), vehicle: saline + alcohol): 99 % of control and 101 % of control
T/C (dose: 2.0 mg/kg/injection, schedule: Q01DX001 (sc), vehicle: saline + alcohol): 113 % of control
T/C (dose: 2.0 mg/kg/injection, schedule: Q01DX009 (ip), vehicle: saline with Tween-80): 97 % of control
T/C (dose: 2.0 mg/kg/injection, schedule: Q01DX009 (oral), vehicle: saline + alcohol): 96 % of control and 111 % of control
T/C (dose: 2.0 mg/kg/injection, schedule: Q01DX009 (sc), vehicle: saline + alcohol): 99 % of control
T/C (dose: 2.0 mg/kg/injection, schedule: Q08DX002 (ip), vehicle: saline + alcohol): 99 % of control
T/C (dose: 2.0 mg/kg/injection, schedule: Q08DX002 (ip), vehicle: saline with Tween-80): 91 % of control
T/C (dose: 3.2 mg/kg/injection, schedule: Q01DX005 (iv), vehicle: saline + alcohol): 110 % of control
T/C (dose: 4.0 mg/kg/injection, schedule: Q01DX001 (oral), vehicle: saline + alcohol): 101 % of control and 105 % of control
T/C (dose: 4.0 mg/kg/injection, schedule: Q01DX009 (oral), vehicle: saline + alcohol): 97 % of control and 115 % of control
T/C (dose: 8.0 mg/kg/injection, schedule: Q01DX001 (oral), vehicle: saline + alcohol): 98 % of control and 99 % of control
T/C (dose: 45.0 micrograms/kg/injection, schedule: Q01DX009 (ip), vehicle: saline + alcohol): 155 % of control
T/C (dose: 90.0 micrograms/kg/injection, schedule: Q01DX009 (ip), vehicle: saline + alcohol): 180 % of control
T/C (dose: 177.0 micrograms/kg/injection, schedule: Q01DX009 (ip), vehicle: saline + alcohol): 190 % of control
T/C (dose: 389.0 micrograms/kg/injection, schedule: Q01DX004 (ip), vehicle: saline + alcohol): 159 % of control
T/C (dose: 400.0 micrograms/kg/injection, schedule: Q01DX009 (ip), vehicle: saline + alcohol): 185 % of control
T/C (dose: 432.0 micrograms/kg/injection, schedule: Q01DX009 (ip), vehicle: saline + alcohol): 180 % of control and 181 % of control
T/C (dose: 720.0 micrograms/kg/injection, schedule: Q01DX009 (ip), vehicle: saline + alcohol): 182 % of control
T/C (dose: 1200.0 micrograms/kg/injection, schedule: Q01DX009 (ip), vehicle: saline + alcohol): 179 % of control
T/C (dose: 2000.0 micrograms/kg/injection, schedule: Q01DX009 (ip), vehicle: saline + alcohol): 189 % of control
